Literature values, collected in patent publication US20190298669A1 (priority 2018, published 2019).

Legend:
viral RNP complexes = conditions: Pleschka et al., 2001; cited from earlier work
[1] = human, in vivo; cited from earlier work

Compound	nuclear cytoplasmic transport of viral RNP complexes (viral RNP complexes)	patients experiencing nausea and vomiting [1]
N#CC(=C(/N)Sc1ccccc1N)/C(C#N)=C(\N)Sc1ccccc1N [U0126]	leads to a blockade	
CCOC(=O)C1=C[C@@H](OC(CC)CC)[C@H](NC(C)=O)[C@@H](N)C1 [oseltamivir]		10-15%
